Measurements as given in publication PMC6435658, “Investigation into the Molecular Mechanisms underlying the Anti-proliferative and Anti-tumorigenesis activities of Diosmetin against HCT-116 Human Colorectal Cancer” (Scientific Reports, 2019).
Values after ≈ are worked out from the molar mass of the structure shown.

Key:
[1] = system: HT-29 cells; assay: MTT cytotoxicity assay, HT-29; format: cell-based, human; conditions: for IC50: Homo sapiens, MTT
Procedure: [Worded in the source for another cell line; this cell line is reported under the same test.] (§1) Cytotoxicity property of Dis against HCT-116 and CCD-841 cells were measured by MTT assay as described by Mossman[77]. Briefly, cells were treated with different concentration of Dis and 5-Fu (positive control) with serial dilution factor of 2 for 8 concentrations in 96 well-plate for different time points (24 h, 48 h and 72 h). Subsequently at the end of each time point 20 µl of MTT (5 mg/ml, Affymetrix,Cleveland, OH, USA) were added to each well followed by 4 h incubation. The solutions were aspirated after 4 h and 100 µl of DMSO were added to each well. Absorbance for each well was read at 570 nm as measured by using microplate reader (Tecan Infinite multimode, Männedorf, Switzerland). Cytotoxicity (cell death) was measured by using the following formula: Celldeath(%)=sampleOD−controlOD/controlOD100
(§2) This assay was performed in triplicates in three independent experiments. The cytotoxicity property of Dis was presented as IC50 value.

[2] = system: HCT-116 cells; assay: MTT cytotoxicity assay, HCT-116; format: cell-based, human; conditions: for IC50: Homo sapiens, MTT
Procedure: as §1, §2

[3] = system: CCD-841 cells; assay: MTT cytotoxicity assay, CCD-841 normal colon cells; format: cell-based; conditions: Homo sapiens, CCD-841 non cancerous cells
Procedure: as §1, §2

Structure (SMILES): O=c1[nH]cc(F)c(=O)[nH]1 [5-FU, 5-Fluorouracil, reference compound]
- IC50 ([1]; HT-29, 24 h): 10.3 ± 2.7 µg/mL (≈ 79 µM)
- IC50 ([1]; HT-29, 48 h): 10.5 ± 1.3 µg/mL (≈ 80.6 µM)
- IC50 ([1]; HT-29, 72 h): 2.24 ± 0.53 µg/mL (≈ 17.2 µM)
- Selectivity Index (SI) ([1]; IC50 CCD-841 / IC50 HT-29, 24 h): 19.15
- Selectivity Index (SI) ([1]; IC50 CCD-841 / IC50 HT-29, 48 h): 2.7
- Selectivity Index (SI) ([1]; IC50 CCD-841 / IC50 HT-29, 72 h): 6.46
- IC50 ([2]; HCT-116, 24 h): 5.43 ± 0.48 µg/mL (≈ 41.7 µM)
- IC50 ([2]; HCT-116, 48 h): 3.07 ± 0.34 µg/mL (≈ 23.6 µM)
- IC50 ([2]; HCT-116, 72 h): 1.47 ± 0.4 µg/mL (≈ 11.3 µM)
- Selectivity Index (SI) ([2]; IC50 CCD-841 / IC50 HCT-116, 24 h): 36.27
- Selectivity Index (SI) ([2]; IC50 CCD-841 / IC50 HCT-116, 48 h): 9.23
- Selectivity Index (SI) ([2]; IC50 CCD-841 / IC50 HCT-116, 72 h): 9.85
- IC50 ([3]; 24 h): 197 ± 14.7 µg/mL (≈ 1510 µM)
- IC50 ([3]; 48 h): 28.3 ± 0.67 µg/mL (≈ 218 µM)
- IC50 ([3]; 72 h): 14.5 ± 0.68 µg/mL (≈ 111 µM)
